Measured values: patent publication US20140357688A1, “METHOD FOR INHIBITING EZH2 EXPRESSION IN BREAST CANCER CELLS” (Yung Shin Pharm. Ind. Co., Ltd., priority 2013, published 2014)

Assays:
MDA-MB-157 = experiment: MTT cell viability assay; assay type: cell-based, human
Protocol: (§1) Human breast cancer cells, MDA-MB-468, MDA-MB-157, MDA-MB-231, MDA-MB-453, and Hs578T, and immortalized mammary epithelial cell lines, 184A1 and MCF-10A, were obtained from American Type Culture Collection (Manassas, Va., USA). MDA-MB-468, MDA-MB-157, MDA-MB-231, and MDA-MB-453 were cultured in DMEM/F12 medium supplemented with 10% FBS, 100 U/ml penicillin, and 100 μg/ml streptomycin. Hs578T was cultured in RPMI 1640 medium containing 10% FBS, 2 mM L-glutamine, 100 U/ml penicillin, and 100 μg/ml streptomycin. 184A1 and MCF-10A were cultured in DMEM/F12 medium supplemented with 5% horse serum, 0.5 μg/ml hydrocortisone, 10 μg/ml insulin, 20 ng/ml epidermal growth factor, 0.1 μg/ml cholera enterotoxin, 2 mM L-glutamine, 100 U/ml penicillin, and 100 μg/ml streptomycin. All cells were maintained in a humidified incubator containing 5% CO2. For hypoxia treatment, cells were incubated in a chamber flushed with 1% 02, 5% CO2, and 94% N2 at 37° C.
(§2) Cell viability was measured by 3-(4,5-Dimethyl-2-thiazolyl)2,5-diphenyl-2H-tetrazolium bromide (MTT) assay.

MDA-MB-231 = experiment: MTT cell viability assay; assay type: cell-based, human; conditions: triple negative breast cancer cell line MDA-MB-231
Protocol: as §1, §2

MDA-MB-468 xenograft = experiment: MDA-MB-468 breast cancer xenograft animal model; assay type: in vivo, Nu/Nu mice
Protocol: MDA-MB-468 cells were used to inoculate Nu/Nu mice. (A, left) Tumor bearing mice were given vehicle (10 μl DMSO, CTL) or YC-1 (30 and 60 mg/kg/day) by ip treatment. (B, right) Tumor bearing mice were given vehicle (normal saline, CTL) or YC-1-succinate (YC-1-S; 20, 40, and 80 mg/kg/day) by oral administration. During treatment period, tumor volume and body weights of mice were measured once per 3 days. Data are expressed as mean of tumor volume (mm^3)±S.E.M. from 6 mice (YC-1 treatment) or 10 mice (YC-1-S treatment). Tumor weights (B) and body weights of mice (C) in control and YC-1/YC-1-S-treated groups were recorded.
Nu/Nu female mice (four weeks old) were from National Laboratory Animal Center, Taipei, Taiwan. Mice were maintained under procedures and guidelines from the Institutional Animal Care and Use of the National Health Research Institutes. MDA-MB-468 breast cancer cells (5×10^6 cells per mouse) were suspended in 0.1 ml of Matrigel solution (50%, v/v, Matrigel in 1×PBS) and inoculated into the mammary fat pads of nude mice. When the tumor masses reached to 100 mm^3, the tumor bearing mice were randomly divided into different groups for different dosage of YC-1 treatments. The mice were given by intraperitoneal injection with YC-1 or oral administration of YC-1-succinate. Tumor size and body weights of mice were measured once per 3 days and tumor volume (mm^3) was calculated as the equation: length×[…]. At the end of experiments, mice were sacrificed and tumor nodules were dissected and weighted. Tumor tissues were subjected to western blot analysis.

Bmi1 = experiment: Western blot of PRC1 components in MDA-MB-468 cells; assay type: cell-based, human
Protocol: (§3) (A)(B) Cells were treated with indicated concentration of YC-1 for 24 h (A) or 3 μM of YC-1 for indicated time (B). Cells were harvested and performed with western blotting analysis. […] The levels of protein expression were quantitated and shown under blots. (C) Cells were transfected with EZH2 shRNA for 0, 1, 2, 3, and 4 days and collected for determination of cell viability (left) and protein expression (right). (D)(E) After 4 days of EZH2 knockdown, cells were incubated with 3 μM YC-1 for 4 h and detected cell viability (D) and protein contents (E). (F) Tumor specimens were isolated and protein was extracted for western blot analysis.
(§4) Cells were lysed in PBS containing proteinase inhibitor and phosphatase inhibitors and sonication. Protein concentration was measured using the Bio-Rad protein assay kit (Bio-Rad Laboratories, Hercules, Calif., USA). Lysate protein was separated by electrophoresis of SDS-PAGE and transferred to Immobilon P membrane (EMD Millipore). The membranes were incubated with appropriate primary antibodies and horseradish peroxidase-conjugated secondary antibodies (EMD Millipore). The signaling was visualized using Chemiluminescence substrate kit (EMD Millipore) and collected by the Luminesence image analyzer, LAS4000 (Fuji Photo Film Co., Tokyo, Japan). The band intensities were analyzed and quantified by the Multi Gauge software (Fuji Photo Film).

Ring1A = experiment: as above; assay type: cell-based, human
Protocol: as §3, §4

Ring1B = experiment: as above; assay type: cell-based, human
Protocol: as §3, §4

H3K27me3 = experiment: Western blot of H3K27me3 in MDA-MB-468 cells; assay type: cell-based, human
Protocol: as §3, §4

CDK1 = experiment: Western blot of CDK1 activation; assay type: cell-based, human; conditions: 3 μM YC-1
Protocol: (A) MDA-MB-468 cells were incubated with 3 μM YC-1 for indicated time. Cells were harvested for the detection of phospho-Akt (Ser473), Akt, and PCNA. (B) Cells were pretreated with LY294002 (LY, 10 μM) for 1 h followed by 3 μM YC-1 induction for 6 h. (C) MDA-MB-468 cells were incubated with 3 μM YC-1 for indicated time. Cells were harvested for the detection of phospho-CDK1 (Thr161), CDK1, phospho-EZH2 ([…]), EZH2, and β-actin expression with western blot analysis. Levels of EZH2 phosphorylation were calculated by phospho-EZH2 normalized by total EZH2. (D) Cells were treated with YC-1 for 6 h in the absence or presence of roscovitine (Rosc, 20 μM). Cells were harvested and analyzed by western blotting for protein expression. (E) CDK1 knockdown of MDA-MB-468 cells were induced with 3 μM YC-1 for 4 h and followed by western blot analysis.
Cells were lysed in PBS containing proteinase inhibitor and phosphatase inhibitors and sonication. Protein concentration was measured using the Bio-Rad protein assay kit (Bio-Rad Laboratories, Hercules, Calif., USA). Lysate protein was separated by electrophoresis of SDS-PAGE and transferred to Immobilon P membrane (EMD Millipore). […] The band intensities were analyzed and quantified by the Multi Gauge software (Fuji Photo Film).

**Q.** For OCc1ccc(-c2nn(Cc3ccccc3)c3ccccc23)o1 [YC-1, 3-(5′-hydroxymethyl-2′-furyl)-1-benzyl indazole], which “effect on cell viability” value (MDA-MB-157) is on record?
**A.** no effect

**Q.** What about the “effect on cell viability” value (MDA-MB-231) of the same compound?
**A.** slight inhibitory effect

**Q.** And the tumor growth (MDA-MB-468 xenograft; 30 and 60 mg/kg by intraperitoneal injection)?
**A.** significantly inhibited the tumor growth

**Q.** And the “body weights of mice” value (MDA-MB-468 xenograft; 30 and 60 mg/kg/day ip)?
**A.** not affected

**Q.** What about the tumor weight (MDA-MB-468 xenograft; 30 and 60 mg/kg/day ip) of the same compound?
**A.** dose-dependently reduced tumor weight

**Q.** And the Bmi1 protein (Bmi1)?
**A.** decreased

**Q.** And the Ring1A protein (Ring1A)?
**A.** decreased

**Q.** What about the Ring1B protein (Ring1B) of the same compound?
**A.** decreased

**Q.** What about the H3K27me3 level (H3K27me3) of the same compound?
**A.** kept unchanged

**Q.** What about the CDK1 activation (CDK1) of the same compound?
**A.** could induce the activation
